What was measured:
[1] = target: GST-Bcl-xL (Homo sapiens (Human), UniProt Q07817); assay: TR-FRET binding assay, competition with F-Bak for Bcl-xL; conditions: competition with F-Bak probe, GST-Bcl-xL 1 nM
Protocol: Determination of the utility of compounds having Formula (I) as binders to and inhibitors of anti-apoptotic Bcl-xL proteins was performed using the Time Resolved-Fluorescence Resonance Energy Transfer (TR-FRET) Assay. Tb-anti-GST antibody was purchased from Invitrogen (Catalog No. PV4216).
The measurement of competition of compounds of Formula (I) with F-Bak for a Bcl-2 family protein (Bcl-xL) binding site using a Time Resolved Fluorescence Resonance Energy Transfer (TR-FRET) binding assay:
Test compounds were serially diluted in DMSO starting at 50 μM (2× starting concentration; 10% DMSO) and 10 μL transferred into a 384-well plate.
The samples are then mixed on a shaker for 1 minute then incubated for an additional 2 hours at room temperature. For each assay plate, a probe/antibody and protein/antibody/probe mixture were included as a negative and a positive control, respectively. Fluorescence was measured on the ENVISION plate reader (Perkin Elmer) using a 340/35 nm excitation filter and 520/525 (F-Bak) and 495/510 nm (Tb-labeled anti-his antibody) emission filters. Dissociation constants (Ki) were determined using Wang's equation (Wang, Z. X. An 20 exact mathematical expression for describing competitive binding of two different ligands to protein molecule. FEBS Lett. 1995 360:111-114). The TR-FRET assay can be performed in the presence of varying concentrations of human serum (HS) or fetal bovine serum (FBS).

[2] = tested on: mouse FL5.12 cells transfected with Bcl-XL; assay: FL5.12 cellular assay (cell viability, CellTiter-Glo); type: cell-based; conditions: IL-3-depleted, 3% FBS assay media, 24 hours, read-out: FL5.12 Bcl-xL, -IL3, EC 50
Protocol: The efficacy of the compounds of Formula (I) can also be determined in cell-based killing assays using a variety of cell lines and mouse tumor models. For example, their activity on cell viability can be assessed on a panel of cultured tumorigenic and non-tumorigenic cell lines, as well as primary mouse or human cell populations. In one exemplary set of conditions, mouse FL5.12 cells transfected with Bcl-XL were cultured under standard conditions in RPMI with 2 mM glutamine, 1% 100 mM sodium pyruvate, 2% 1 M HEPES, 4 μL/L of β-mercaptoethanol, 1% penicillinstreptomycin, 10% FBS, and 10% WEHI-3B conditioned media (for IL-3). For assaying the compound activity, the cells were exchanged into an IL-3-depleted deprivation media, which was identical to the growth media except for the absence of FBS and WEHI-3B conditional media, for 2 days. Then the cells were exchanged to 3% FBS assay media (RPMI with 2 mM glutamine, 1% 100 mM sodium pyruvate, 2% 1 M HEPES, 4 μL/L of β-mercaptoethanol, 1% penicillinstreptomycin, 3% FBS). Compounds in series dilutions were added, and the cells were cultured for 24 hours. Cell viability was assayed using the CellTiter-Glo assay (Promega Corp., Madison, Wis.) according to the manufacturer instructions. Individual determinations were the result of duplicate values.

Chain of GST-Bcl-xL (Q07817 whole entry): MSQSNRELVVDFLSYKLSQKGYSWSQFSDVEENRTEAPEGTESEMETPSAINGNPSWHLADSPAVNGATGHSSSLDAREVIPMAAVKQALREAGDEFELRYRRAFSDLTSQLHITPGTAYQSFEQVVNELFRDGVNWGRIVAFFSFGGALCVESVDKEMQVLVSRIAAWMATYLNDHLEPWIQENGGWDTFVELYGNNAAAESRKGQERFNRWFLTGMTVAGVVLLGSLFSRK

Q: `CN(C)CC[C@H](CSc1ccccc1)Nc1ccc(S(=O)(=O)NC(=O)c2csc(N3CCc4cccc(C(=O)Nc5nc6ccccc6s5)c4C3)n2)cc1[N+](=O)[O-]` [Example 1, N-(1,3-benzothiazol-2-yl)-2-(4-{[(4-{[(2R)-4-(dimethylamino)-1-(phenylsulfanyl)butan-2-yl]amino}-3-nitrophenyl)sulfonyl]carbamoyl}-1,3-thiazol-2-yl)-1,2,3,4-tetrahydroisoquinoline-8-carboxamide] was tested. Which Ki [1] did it give?
A: 0.1 nM

Q: What about the EC50 [2] of the same compound?
A: 56 nM

Q: Which Ki [1] does the source give for `O=C(NS(=O)(=O)c1ccc(N[C@H](CCN2CCOCC2)CSc2ccccc2)c(S(=O)(=O)C(F)(F)F)c1)c1csc(N2CCc3cccc(C(=O)Nc4nc5ccccc5s4)c3C2)n1` [Example 2, N-(1,3-benzothiazol-2-yl)-2-(4-{[(4-{[(2R)-4-(morpholin-4-yl)-1-(phenylsulfanyl)butan-2-yl]amino}-3-[(trifluoromethyl)sulfonyl]phenyl)sulfonyl]carbamoyl}-1,3-thiazol-2-yl)-1,2,3,4-tetrahydroisoquinoline-8-carboxamide] here?
A: 0.1 nM

Q: What about the EC50 [2] of the same compound?
A: 12 nM

Q: How did the Ki [1] turn out when `O=C(NS(=O)(=O)c1ccc(N[C@H](CCN2CCOCC2)CSc2ccccc2)c(S(=O)(=O)C(F)(F)F)c1)c1cccc(N2CCc3cccc(C(=O)Nc4nc5ccccc5s4)c3C2)n1` [Example 3, N-(1,3-benzothiazol-2-yl)-2-(6-{[(4-{[(2R)-4-(morpholin-4-yl)-1-(phenylsulfanyl)butan-2-yl]amino}-3-[(trifluoromethyl)sulfonyl]phenyl)sulfonyl]carbamoyl}pyridin-2-yl)-1,2,3,4-tetrahydroisoquinoline-8-carboxamide] was run?
A: 12 nM

Q: What about the EC50 [2] of the same compound?
A: > 1000 nM

Q: Which Ki [1] does the source give for `CN(C)CCCNc1ccc(S(=O)(=O)NC(=O)c2nc(N3CCc4cccc(C(=O)Nc5nc6ccccc6s5)c4C3)ccc2CCCc2ccccc2)cc1[N+](=O)[O-]` [Example 4, N-(1,3-benzothiazol-2-yl)-2-[6-{[(4-{[3-(dimethylamino)propyl]amino}-3-nitrophenyl)sulfonyl]carbamoyl}-5-(3-phenylpropyl)pyridin-2-yl]-1,2,3,4-tetrahydroisoquinoline-8-carboxamide] here?
A: 9 nM

Q: What about the EC50 [2] of the same compound?
A: > 1000 nM

Q: What does the source list for `CN(C)CCCNc1ccc(S(=O)(=O)NC(=O)c2nc(N3CCc4cccc(C(=O)Nc5nc6ccccc6s5)c4C3)ccc2CCCc2ccccc2)cc1S(=O)(=O)C(F)(F)F` [Example 5, N-(1,3-benzothiazol-2-yl)-2-[6-{[(4-{[3-(dimethylamino)propyl]amino}-3-[(trifluoromethyl)sulfonyl]phenyl)sulfonyl]carbamoyl}-5-(3-phenylpropyl)pyridin-2-yl]-1,2,3,4-tetrahydroisoquinoline-8-carboxamide]?
A: Ki [1]: 48 nM; EC50 [2]: > 1000 nM

Q: What does the source list for `CN(C)CCCNc1ccc(S(=O)(=O)NC(=O)c2nc(N3CCc4cccc(C(=O)Nc5nc6ccccc6s5)c4C3)ccc2CCc2ccccc2)cc1[N+](=O)[O-]` [Example 6, N-(1,3-benzothiazol-2-yl)-2-[6-{[(4-{[3-(dimethylamino)propyl]amino}-3-nitrophenyl)sulfonyl]carbamoyl}-5-(2-phenylethyl)pyridin-2-yl]-1,2,3,4-tetrahydroisoquinoline-8-carboxamide]?
A: Ki [1]: 17 nM; EC50 [2]: > 1000 nM

Q: Which results are given for `CN(C)CCCNc1ccc(S(=O)(=O)NC(=O)c2csc(N3CCc4cccc(C(=O)Nc5nc6ccccc6s5)c4C3)n2)cc1S(=O)(=O)C(F)(F)F` [Example 7, N-(1,3-benzothiazol-2-yl)-2-(4-{[(4-{[3-(dimethylamino)propyl]amino}-3-[(trifluoromethyl)sulfonyl]phenyl)sulfonyl]carbamoyl}-1,3-thiazol-2-yl)-1,2,3,4-tetrahydroisoquinoline-8-carboxamide]?
A: Ki [1]: 1.7 nM; EC50 [2]: > 1000 nM

Q: What does the source list for `CN(C)CCCNc1ccc(S(=O)(=O)NC(=O)c2nc(N3CCc4cccc(C(=O)Nc5nc6ccccc6s5)c4C3)sc2Cc2ccccc2)cc1S(=O)(=O)C(F)(F)F` [Example 8, N-(1,3-benzothiazol-2-yl)-2-(5-benzyl-4-{[(4-{[3-(dimethylamino)propyl]amino}-3-[(trifluoromethyl)sulfonyl]phenyl)sulfonyl]carbamoyl}-1,3-thiazol-2-yl)-1,2,3,4-tetrahydroisoquinoline-8-carboxamide]?
A: Ki [1]: 11 nM; EC50 [2]: > 1000 nM

Q: Which results are given for `CN(C)CCCNc1ccc(S(=O)(=O)NC(=O)c2nc(N3CCc4cccc(C(=O)Nc5nc6ccccc6s5)c4C3)sc2Cc2ccccc2)cc1[N+](=O)[O-]` [Example 9, N-(1,3-benzothiazol-2-yl)-2-(5-benzyl-4-{[(4-{[3-(dimethylamino)propyl]amino}-3-nitrophenyl)sulfonyl]carbamoyl}-1,3-thiazol-2-yl)-1,2,3,4-tetrahydroisoquinoline-8-carboxamide]?
A: Ki [1]: 41 nM; EC50 [2]: > 1000 nM

Q: With `O=C(NS(=O)(=O)c1ccc(N[C@H](CCN2CCOCC2)CSc2ccccc2)c([N+](=O)[O-])c1)c1csc(N2CCc3cccc(C(=O)Nc4nc5ccccc5s4)c3C2)n1` [Example 10, N-(1,3-benzothiazol-2-yl)-2-(4-{[(4-{[(2R)-4-(morpholin-4-yl)-1-(phenylsulfanyl)butan-2-yl]amino}-3-nitrophenyl)sulfonyl]carbamoyl}-1,3-thiazol-2-yl)-1,2,3,4-tetrahydroisoquinoline-8-carboxamide] as the compound, how does the Ki [1] read?
A: 0.14 nM

Q: What does the source list for `CN(C)CCCNc1ccc(S(=O)(=O)NC(=O)c2nc(N3CCc4cccc(C(=O)Nc5nc6ccccc6s5)c4C3)sc2CCc2ccccc2)cc1S(=O)(=O)C(F)(F)F` [Example 11, N-(1,3-benzothiazol-2-yl)-2-[4-{[(4-{[3-(dimethylamino)propyl]amino}-3-[(trifluoromethyl)sulfonyl]phenyl)sulfonyl]carbamoyl}-5-(2-phenylethyl)-1,3-thiazol-2-yl]-1,2,3,4-tetrahydroisoquinoline-8-carboxamide]?
A: Ki [1]: 0.06 nM; EC50 [2]: 22 nM

Q: Which Ki [1] does the source give for `CN(C)CC[C@H](CSc1ccccc1)Nc1ccc(S(=O)(=O)NC(=O)c2csc(N3CCc4cccc(C(=O)Nc5nc6ccccc6s5)c4C3)n2)cc1S(=O)(=O)C(F)(F)F` [Example 12, N-(1,3-benzothiazol-2-yl)-2-(4-{[(4-{[(2R)-4-(dimethylamino)-1-(phenylsulfanyl)butan-2-yl]amino}-3-[(trifluoromethyl)sulfonyl]phenyl)sulfonyl]carbamoyl}-1,3-thiazol-2-yl)-1,2,3,4-tetrahydroisoquinoline-8-carboxamide] here?
A: 0.04 nM

Q: What about the EC50 [2] of the same compound?
A: 3 nM

Q: How did the Ki [1] turn out when `CN(C)CCCNc1ccc(S(=O)(=O)NC(=O)c2nc(N3CCc4cccc(C(=O)Nc5nc6ccccc6s5)c4C3)sc2CCc2ccccc2)cc1[N+](=O)[O-]` [Example 13, N-(1,3-benzothiazol-2-yl)-2-[4-{[(4-{[3-(dimethylamino)propyl]amino}-3-nitrophenyl)sulfonyl]carbamoyl}-5-(2-phenylethyl)-1,3-thiazol-2-yl]-1,2,3,4-tetrahydroisoquinoline-8-carboxamide] was run?
A: 0.8 nM

Q: And the EC50 [2]?
A: 94 nM

Q: For `O=C(NS(=O)(=O)c1ccc(N[C@H](CCO)CSc2ccccc2)c(S(=O)(=O)C(F)(F)F)c1)c1csc(N2CCc3cccc(C(=O)Nc4nc5ccccc5s4)c3C2)n1` [Example 14, N-(1,3-benzothiazol-2-yl)-2-(4-{[(4-{[(2R)-4-hydroxy-1-(phenylsulfanyl)butan-2-yl]amino}-3-[(trifluoromethyl)sulfonyl]phenyl)sulfonyl]carbamoyl}-1,3-thiazol-2-yl)-1,2,3,4-tetrahydroisoquinoline-8-carboxamide], which Ki [1] is on record?
A: 0.2 nM

Q: How did the Ki [1] turn out when `CN(C)CCCNc1ccc(S(=O)(=O)NC(=O)c2nc(N3CCc4cccc(C(=O)Nc5nc6ccccc6s5)c4C3)sc2CCCc2ccccc2)cc1[N+](=O)[O-]` [Example 15, N-(1,3-benzothiazol-2-yl)-2-[4-{[(4-{[3-(dimethylamino)propyl]amino}-3-nitrophenyl)sulfonyl]carbamoyl}-5-(3-phenylpropyl)-1,3-thiazol-2-yl]-1,2,3,4-tetrahydroisoquinoline-8-carboxamide] was run?
A: 5 nM

From patent US8883784B2, “Apoptosis-inducing agents for the treatment of cancer and immune and autoimmune diseases” (AbbVie Inc., priority 2012, dated 2014)
